Test results reported in ChEMBL document CHEMBL4251601 (Eur J Med Chem, 2018).
pIC50: −log10 of the molar value. Values belong to the compound of their own block, whether it stands above or below them.

Experiments:
U-87 MG = test: Antiproliferative activity against human U87MG cells after 72 hrs by DAPI staining based assay; type: functional, cell-based, U-87MG ATCC
[1] = Unbound brain to plasma concentration ratio in mouse at 30 mg/kg, po; type: ADME, organism-based; conditions: read-out: K(p,uu,brain)
[2] = Unbound brain to plasma concentration ratio in mouse at 1 mg/kg, iv after 5 mins; type: ADME, organism-based; conditions: read-out: K(p,uu,brain)
[3] = Unbound brain to plasma concentration ratio in CD-1 nude mouse at 100 mg/kg, po; type: ADME, organism-based; conditions: read-out: K(p,uu,brain)
[4] = Volume of distribution at steady state in Sprague-Dawley rat at 2 mg/kg, iv administered as single dose by LC-MS/MS analysis; type: ADME, organism-based; conditions: in vivo, read-out: Vdss
[5] = AUC (0 to 24 hrs) in Sprague-Dawley rat at 2 mg/kg, iv administered as single dose by LC-MS/MS analysis; type: ADME, organism-based; design: dose 2 mg/kg, time < 24 hr, route intravenous; conditions: in vivo
Homo sapiens = species on record: Homo sapiens; test: Selectivity ratio of IC50 for CDK1/Cyclin-A2 (unknown origin) to IC50 for CDK6/Cyclin-D3 (unknown origin)
[6] = Half life in Sprague-Dawley rat at 2 mg/kg, iv administered as single dose by LC-MS/MS analysis; type: ADME, organism-based; conditions: in vivo
Rattus norvegicus [7] = test: (§1) Oral bioavailability in Sprague-Dawley rat at 5 mg/kg administered as single dose by LC-MS/MS analysis; type: ADME, organism-based; conditions: in vivo
[8] = Clearance in Sprague-Dawley rat at 2 mg/kg, iv administered as single dose by LC-MS/MS analysis; type: ADME, organism-based; conditions: in vivo
[9] = AUC (0 to 24 hrs) in Sprague-Dawley rat at 5 mg/kg, po administered as single dose by LC-MS/MS analysis; type: ADME, organism-based; design: time < 24 hr, dose 5 mg/kg, route oral; conditions: in vivo
[10] = Cmax in Sprague-Dawley rat at 5 mg/kg, po administered as single dose by LC-MS/MS analysis; type: ADME, organism-based; design: dose 5 mg/kg, route oral; conditions: in vivo
Rattus norvegicus [11] = test: (§2) AUC (0 to infinity) in Sprague-Dawley rat at 2 mg/kg, iv administered as single dose by LC-MS/MS analysis; type: ADME, organism-based; design: dose 2 mg/kg, route intravenous, time infinity; conditions: in vivo
Rattus norvegicus [12] = test: (§3) AUC (0 to infinity) in Sprague-Dawley rat at 5 mg/kg, po administered as single dose by LC-MS/MS analysis; type: ADME, organism-based; design: dose 5 mg/kg, route oral, time infinity; conditions: in vivo
[13] = Half life in Sprague-Dawley rat at 5 mg/kg, po administered as single dose by LC-MS/MS analysis; type: ADME, organism-based; conditions: in vivo
[14] = as §1; type: ADME, organism-based; conditions: Sprague-Dawley, in vivo
[15] = Stability in CD-1 mouse liver microsomes assessed as parent compound remaining at 10 uM measured after 60 mins in absence of NADPH-regenerating system by LC-MS/MS analysis; type: ADME, microsome; conditions: read-out: Stability
[16] = Stability in CD-1 mouse liver microsomes assessed as parent compound remaining at 10 uM preincubated for 5 mins followed by NADP addition measured after 60 mins by LC-MS/MS analysis; type: ADME, microsome; conditions: read-out: Stability
[17] = Intrinsic clearance in CD-1 mouse liver microsomes at 10 uM preincubated for 5 mins followed by NADP addition by LC-MS/MS analysis; type: ADME, microsome; conditions: read-out: CLH
[18] = as §2; type: ADME, organism-based; design: dose 2 mg/kg, route intravenous, time infinity; conditions: Sprague-Dawley, in vivo
[19] = biological target: Cyclin-dependent kinase 4/cyclin D1 (Homo sapiens, UniProt P11802); test: Inhibition of CDK4/Cyclin-D1 (unknown origin) using histone-H1 as substrate after 90 mins by ADP-Glo assay; type: protein-complex assay
Sequence of Cyclin-dependent kinase 4/cyclin D1 (P11802 whole entry): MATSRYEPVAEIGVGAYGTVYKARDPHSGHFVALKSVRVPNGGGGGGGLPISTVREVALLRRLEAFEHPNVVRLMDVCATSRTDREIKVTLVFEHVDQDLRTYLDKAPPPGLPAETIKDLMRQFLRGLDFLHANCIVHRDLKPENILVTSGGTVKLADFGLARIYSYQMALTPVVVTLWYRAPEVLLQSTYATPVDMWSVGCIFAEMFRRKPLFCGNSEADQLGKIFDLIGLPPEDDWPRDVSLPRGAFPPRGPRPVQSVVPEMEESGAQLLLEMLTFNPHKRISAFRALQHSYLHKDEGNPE
Sequence of Cyclin-dependent kinase 4/cyclin D1 (P24385 whole entry, further chain): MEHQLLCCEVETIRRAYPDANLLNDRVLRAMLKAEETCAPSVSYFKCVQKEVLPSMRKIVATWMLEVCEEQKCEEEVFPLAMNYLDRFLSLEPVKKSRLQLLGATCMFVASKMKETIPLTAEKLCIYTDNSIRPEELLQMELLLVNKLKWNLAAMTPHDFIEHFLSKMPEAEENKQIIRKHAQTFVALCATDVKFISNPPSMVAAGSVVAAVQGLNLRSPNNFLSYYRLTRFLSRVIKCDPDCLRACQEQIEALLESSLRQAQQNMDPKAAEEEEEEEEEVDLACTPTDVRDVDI

CDK6/cyclin D3 = CDK6/cyclin D3 (Homo sapiens, UniProt Q00534); test: Inhibition of CDK6/Cyclin-D3 (unknown origin) using histoneH1 as substrate after 90 mins by ADP-Glo assay; type: protein-complex assay
Sequence of CDK6/cyclin D3 (P30281 whole entry): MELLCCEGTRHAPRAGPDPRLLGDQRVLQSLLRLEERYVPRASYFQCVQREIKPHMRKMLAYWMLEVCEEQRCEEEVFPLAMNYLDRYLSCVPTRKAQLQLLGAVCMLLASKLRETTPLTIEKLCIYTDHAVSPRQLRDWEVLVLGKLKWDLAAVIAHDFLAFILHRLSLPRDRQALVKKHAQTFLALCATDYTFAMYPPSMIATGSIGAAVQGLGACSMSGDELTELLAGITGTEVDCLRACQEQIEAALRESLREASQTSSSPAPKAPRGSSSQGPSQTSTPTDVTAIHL
Sequence of CDK6/cyclin D3 (Q00534 whole entry): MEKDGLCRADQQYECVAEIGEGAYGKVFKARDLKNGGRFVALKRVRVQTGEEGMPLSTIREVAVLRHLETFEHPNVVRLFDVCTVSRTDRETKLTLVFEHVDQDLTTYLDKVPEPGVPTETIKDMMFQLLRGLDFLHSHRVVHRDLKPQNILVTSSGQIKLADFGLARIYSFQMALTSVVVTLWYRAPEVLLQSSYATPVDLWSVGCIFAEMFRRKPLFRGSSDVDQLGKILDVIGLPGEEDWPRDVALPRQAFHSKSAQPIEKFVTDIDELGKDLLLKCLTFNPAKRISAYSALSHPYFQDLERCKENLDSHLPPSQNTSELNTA

[20] = Half life in CD-1 mouse liver microsomes at 10 uM preincubated for 5 mins followed by NADP addition by LC-MS/MS analysis; type: ADME, microsome
[21] = as §3; type: ADME, organism-based; design: dose 5 mg/kg, route oral, time infinity; conditions: Sprague-Dawley, in vivo

SMILES: CC(=O)c1c(C)c2cnc(Nc3ccc(N4CCNCC4)cn3)nc2n(C2CCCC2)c1=O [PALBOCICLIB]
Kp uu at 5 min [2]: 0.01

SMILES: CN(C)C(=O)c1cc2cnc(Nc3ccc(N4CCNCC4)cn3)nc2n1C1CCCC1 [RIBOCICLIB]
Kp uu [3]: 0.12

More lines, now with the values ahead:

pIC50 (U-87 MG): 7.32
Kp uu [1]: 0.03
SMILES: CCN1CCN(Cc2ccc(Nc3ncc(F)c(-c4cc(F)c5nc(C)n(C(C)C)c5c4)n3)nc2)CC1 [ABEMACICLIB]

Vd [4]: 7.1 L/kg
AUC(0-t) at 24 h [5]: 1900 ng·h/mL
Ratio IC50 (Homo sapiens): 18
half-life [6]: 6.1 h
F (Rattus norvegicus [7]): 25%
clearance [8]: 16.9 mL/min/kg
AUC(0-t) at 24 h [9]: 1200 ng·h/mL
Cmax [10]: 99.9 ng/mL
AUC (Rattus norvegicus [11]): 2000 ng·h/mL
AUC (Rattus norvegicus [12]): 3651 ng·h/mL
SMILES: CCN1CCN(c2ccc(Nc3ncc(F)c(-c4ccc5c(c4)C4(CCCC4)C(C)=N5)n3)nc2)CC1

Vd [4]: 16.7 L/kg
AUC(0-t) at 24 h [5]: 670 ng·h/mL
half-life [13]: 3.6 h
half-life [6]: 4.6 h
bioavailability [14]: 48%
remaining at 1 h, 10 µM [15]: 81.1%
clearance [8]: 48.9 mL/min/kg
AUC(0-t) at 24 h [9]: 813 ng·h/mL
remaining at 1 h, 10 µM [16]: 1%
Cmax [10]: 77.1 ng/mL
microsomal CLint at 10 µM [17]: 171 µL/min/mg
AUC(0-inf) [18]: 686 ng·h/mL
pIC50 [19]: 7.92
pIC50 (CDK6/cyclin D3): 8.70
half-life at 10 µM [20]: 8.1 min
AUC(0-inf) [21]: 827 ng·h/mL
SMILES: CCN1CCN(Cc2ccc(Nc3ncc(F)c(-c4cc(F)c5c(c4)C4(CCCC4)C(C)=N5)n3)nc2)CC1
